Measurements taken from patent publication US8497278B2, “Imidazo[1,2-a]pyridine compounds” (priority 2008, dated 2013).

Tested on: central benzodiazepine receptors
Assay: Central benzodiazepine receptor binding (test of Speth et al.)
Settings: 1000 nM of the compound
Description: Compounds of the invention were assessed for their binding to the benzodiazepine receptor by the test of Speth et al. [Life Sci. 24, 351 (1979)] for central benzodiazepine receptors and LeFur et al. [Life Sci. 33, 449 (1983)] for peripheral receptors. The compounds were tested first at 1.0E-09, 1.0E-07 and 1.0E-05 M in single determination. […] The specific ligand binding to the receptor is defined as the difference between the total binding and the nonspecific binding determined in the presence of an excess of unlabelled ligand. In each experiment, the respective reference compound was tested concurrently with the test compounds in order to assess the assay suitability. It was tested at several concentrations (for IC50 value determination), and the data were compared with historical values. The assay was rendered valid if suitability criteria were met.
BZD central binding data for the compounds is provided in Table 3, wherein is provided the percent inhibition of central BZD in the presence of 1000 nM of the compound.

Cc1ccc(-c2nc3ccc(C)cn3c2CN2CCN(C)C2=O)cc1 [Compound 92, 1-methyl-3-((6-methyl-2-p-tolylH-imidazo[1,2-a]pyridin-3-yl)methyl)imidazolidin-2-one]
% Inhibition at 1000 nM for CBZD: ++ (percentage of inhibition of central BZD site binding is greater than 80% in the presence of 1000 nM of the compound)

COC(=O)c1nn(Cc2c(-c3ccc(Cl)cc3)nc3ccccn23)c2ccccc12 [Compound 34, Methyl 1-((2-(4-chlorophenyl)imidazo[1,2-a]pyridin-3-yl)methyl)-1H-indazole-3-carboxylate]
% Inhibition at 1000 nM for CBZD: + (percentage of inhibition of central BZD site binding is greater than 50% but less than 80% in the presence of 1000 nM of the compound)

Cc1ccc(-c2nc3ccc(C)cn3c2Cn2ccnc2C(C)C)cc1 [Compound 5, 3-((2-Isopropyl-1H-imidazol-1-yl)methyl)-6-methyl-2-p-tolylH-imidazo[1,2-a]pyridine]
% Inhibition at 1000 nM for CBZD: ++ (percentage of inhibition of central BZD site binding is greater than 80% in the presence of 1000 nM of the compound)

Cc1ccc2nc(-c3ccc(F)cc3)c(CNc3nc(F)cc(F)n3)n2c1 [Compound 166, 4,6-difluoro-N-((2-(4-fluorophenyl)-6-methylimidazo[1,2-a]pyridin-3-yl)methyl)pyrimidin-2-amine]
% Inhibition at 1000 nM for CBZD: ++ (percentage of inhibition of central BZD site binding is greater than 80% in the presence of 1000 nM of the compound)

Fc1ccc(-c2nc3ccccn3c2Cn2ccnn2)cc1 [Compound 48, 3-((1H-1,2,3-triazol-1-yl)methyl)-2-(4-fluorophenyl)H-imidazo[1,2-a]pyridine]
% Inhibition at 1000 nM for CBZD: ++ (percentage of inhibition of central BZD site binding is greater than 80% in the presence of 1000 nM of the compound)

Cc1ccc(-c2nc3ccc(C)cn3c2CNc2nc(C)cc(C)n2)cc1 [Compound 148, 4,6-dimethyl-N-((6-methyl-2-p-tolylH-imidazo[1,2-a]pyridin-3-yl)methyl)pyrimidin-2-amine]
% Inhibition at 1000 nM for CBZD: ++ (percentage of inhibition of central BZD site binding is greater than 80% in the presence of 1000 nM of the compound)

CCOC(=O)c1cc(C)nn1Cc1c(-c2ccc(Cl)cc2)nc2ccccn12 [Compound 28, Ethyl 1-((2-(4-chlorophenyl)imidazo[1,2-a]pyridin-3-yl)methyl)-3-methyl-1H-pyrazole-5-carboxylate]
% Inhibition at 1000 nM for CBZD: ++ (percentage of inhibition of central BZD site binding is greater than 80% in the presence of 1000 nM of the compound)

Cl.Clc1ccc(-c2nc3ccc(Cl)cn3c2CNc2ncccn2)cc1 [Compound 156, N-((6-chloro-2-(4-chlorophenyl)H-imidazo[1,2-a]pyridin-3-yl)methyl)pyrimidin-2-amine hydrochloride]
% Inhibition at 1000 nM for CBZD: ++ (percentage of inhibition of central BZD site binding is greater than 80% in the presence of 1000 nM of the compound)

Cc1ccc(-c2nc3ccc(C)cn3c2Cn2c(C)c(C)sc2=S)cc1 [Compound 130, 4,5-Dimethyl-3-(6-methyl-2-p-tolyl-imidazo[1,2-a]pyridin-3-ylmethyl)-3H-thiazole-2-thione]
% Inhibition at 1000 nM for CBZD: ++ (percentage of inhibition of central BZD site binding is greater than 80% in the presence of 1000 nM of the compound)

Cc1ccc(-c2nc3ccc(C)cn3c2COn2nnc3ccccc32)cc1 [Compound 174, 1-((6-methyl-2-p-tolylH-imidazo[1,2-a]pyridin-3-yl)methoxy)-1H-benzo[d][1,2,3]triazole]
% Inhibition at 1000 nM for CBZD: ++ (percentage of inhibition of central BZD site binding is greater than 80% in the presence of 1000 nM of the compound)

Cc1ccc(-c2nc3ccc(C)cn3c2CNn2cnnc2)cc1 [Compound 152, (6-methyl-2-p-tolylH-imidazo[1,2-a]pyridin-3-yl)-N-(4H-1,2,4-triazol-4-yl)methanamine]
% Inhibition at 1000 nM for CBZD: + (percentage of inhibition of central BZD site binding is greater than 50% but less than 80% in the presence of 1000 nM of the compound)

c1ccc(-c2nc3ccccn3c2Cn2ccnn2)cc1 [Compound 50, 3-((1H-1,2,3-triazol-1-yl)methyl)-2-phenylH-imidazo[1,2-a]pyridine]
% Inhibition at 1000 nM for CBZD: + (percentage of inhibition of central BZD site binding is greater than 50% but less than 80% in the presence of 1000 nM of the compound)

CSc1nsc(=S)n1Cc1c(-c2ccc(C)cc2)nc2ccc(C)cn12 [Compound 129, 3-Methylsulfanyl-4-(6-methyl-2-p-tolyl-imidazo[1,2-a]pyridin-3-ylmethyl)-4H-[1,2,4]thiadiazole-5-thione]
% Inhibition at 1000 nM for CBZD: ++ (percentage of inhibition of central BZD site binding is greater than 80% in the presence of 1000 nM of the compound)

Fc1cc(F)nc(NCc2c(-c3ccccc3)nc3ccc(Cl)cn23)n1 [Compound 168, N-((6-chloro-2-phenylimidazo[1,2-a]pyridin-3-yl)methyl)-4,6-difluoropyrimidin-2-amine]
% Inhibition at 1000 nM for CBZD: ++ (percentage of inhibition of central BZD site binding is greater than 80% in the presence of 1000 nM of the compound)

Cc1ccc(-c2nc3ccc(C)cn3c2Cn2c(C)nc3ccccc32)cc1 [Compound 14, 2-Methyl-1-((6-methyl-2-p-tolylH-imidazo[1,2-a]pyridin-3-yl)methyl)-1H-benzo[d]imidazole]
% Inhibition at 1000 nM for CBZD: − (percentage of inhibition of central BZD site binding is less than 50% in the presence of 1000 nM of the compound)

Cc1ccc(-c2nc3ccc(C)cn3c2Cn2ccnc2)cc1 [Compound 1, 3-((1H-imidazol-1-yl)methyl)-6-methyl-2-p-tolylimidazo[1,2-a]pyridine]
% Inhibition at 1000 nM for CBZD: ++ (percentage of inhibition of central BZD site binding is greater than 80% in the presence of 1000 nM of the compound)

Cc1ccc(-c2nc3ccc(C)cn3c2Cn2ccsc2=S)cc1 [Compound 131, 3-((6-Methyl-2-p-tolylH-imidazo[1,2-a]pyridin-3-yl)methyl)thiazole-2(3H)-thione]
% Inhibition at 1000 nM for CBZD: ++ (percentage of inhibition of central BZD site binding is greater than 80% in the presence of 1000 nM of the compound)

O=c1ccccn1Cc1c(-c2ccc(Cl)cc2)nc2ccc(F)cn12 [Compound 122, 1-((2-(4-chlorophenyl)-6-fluoroimidazo[1,2-a]pyridin-3-yl)methyl)pyridin-2(1H)-one]
% Inhibition at 1000 nM for CBZD: ++ (percentage of inhibition of central BZD site binding is greater than 80% in the presence of 1000 nM of the compound)

Clc1ccc(-c2nc3ccccn3c2Cc2cncc(OC3CCNC3)n2)cc1 (stereo not drawn) [Compound 186, 2-(4-chlorophenyl)-3-((6-(pyrrolidin-3-yloxy)pyrazin-2-yl)methyl)imidazo[1,2-a]pyridine]
% Inhibition at 1000 nM for CBZD: ++ (percentage of inhibition of central BZD site binding is greater than 80% in the presence of 1000 nM of the compound)

CNCCOc1nccc(NCc2c(-c3ccc(Cl)cc3)nc3ccccn23)n1 [Compound 185, N-((2-(4-chlorophenyl)imidazo[1,2-a]pyridin-3-yl)methyl)-2-(2-(methylamino)ethoxy)pyrimidin-4-amine]
% Inhibition at 1000 nM for CBZD: ++ (percentage of inhibition of central BZD site binding is greater than 80% in the presence of 1000 nM of the compound)

COC(=O)c1cn(Cc2c(-c3ccc(Cl)cc3)nc3ccccn23)c2ccccc12 [Compound 38, Methyl 1-((2-(4-chlorophenyl)imidazo[1,2-a]pyridin-3-yl)methyl)-1H-indole-3-carboxylate]
% Inhibition at 1000 nM for CBZD: ++ (percentage of inhibition of central BZD site binding is greater than 80% in the presence of 1000 nM of the compound)

Fc1ccc(-c2nc3ccccn3c2Cn2cncn2)cc1 [Compound 54, 3-((1H-1,2,4-triazol-1-yl)methyl)-2-(4-fluorophenyl)H-imidazo[1,2-a]pyridine]
% Inhibition at 1000 nM for CBZD: ++ (percentage of inhibition of central BZD site binding is greater than 80% in the presence of 1000 nM of the compound)

Cc1ccc(-c2nc3ccc(C)cn3c2CNn2c(C)nc3ccccc3c2=O)cc1 [Compound 155, 2-Methyl-3-[(6-methyl-2-p-tolyl-imidazo[1,2-a]pyridin-3-ylmethyl)-amino]-3H-quinazolin-4-one]
% Inhibition at 1000 nM for CBZD: + (percentage of inhibition of central BZD site binding is greater than 50% but less than 80% in the presence of 1000 nM of the compound)

CNC(=O)c1ncnn1Cc1c(-c2ccc(C)cc2)nc2ccc(C)cn12 [Compound 68, 2-(6-Methyl-2-p-tolyl-imidazo[1,2-a]pyridin-3-ylmethyl)-2H-[1,2,4]triazole-3-carboxylic acid methylamide]
% Inhibition at 1000 nM for CBZD: ++ (percentage of inhibition of central BZD site binding is greater than 80% in the presence of 1000 nM of the compound)

Cc1ccc(-c2nc3ccc(C)cn3c2CNc2ncc[nH]2)cc1 [Compound 153, N-((6-methyl-2-p-tolyl-H-imidazo[1,2-a]pyridin-3-yl)methyl)-1H-imidazol-2-amine]
% Inhibition at 1000 nM for CBZD: ++ (percentage of inhibition of central BZD site binding is greater than 80% in the presence of 1000 nM of the compound)

CCNc1ccn(Cc2c(-c3ccc(Cl)cc3)nc3ccccn23)c(=O)n1 [Compound 132, 1-((2-(4-chlorophenyl)imidazo[1,2-a]pyridin-3-yl)methyl)-4-(ethylamino)pyrimidin-2(1H)-one]
% Inhibition at 1000 nM for CBZD: ++ (percentage of inhibition of central BZD site binding is greater than 80% in the presence of 1000 nM of the compound)

Fc1ccc(-c2nc3ccc(F)cn3c2Cc2ncn[nH]2)cc1 [Compound 210, 3-((1H-1,2,4-triazol-5-yl)methyl)-6-fluoro-2-(4-fluorophenyl)imidazo[1,2-a]pyridine]
% Inhibition at 1000 nM for CBZD: ++ (percentage of inhibition of central BZD site binding is greater than 80% in the presence of 1000 nM of the compound)
